From patent publication US20240325461A1, “COMBINATION THERAPIES FOR THE TREATMENT OF DISEASES” (Research Development Foundation, priority 2023, published 2024) come the findings set out here.

Assay [1] deals with ovariectomized female mice. Kind of assay: Intraperitoneal insulin tolerance test, curative model. The class given is in vivo, C57BL/6J mice. As to conditions: test on day 52 of administration. As for the experimental part: (§1) A curative mouse model for osteoporosis was used for experiments, as follows. 16-week old female C57Bl/6J mice were ovariectomized and left for 2 months to develop the symptoms of osteoporosis and postmenopausal weigh gain and glucose intolerance. Administration of the respective treatment was initiated following these 2 months after the ovariectomies, i.e, once the mice already developed the symptoms of the respective metabolic disease.
Insulin sensitivity (normalized values) was measured by intraperitoneal insulin tolerance test of ovariectomized female mice, administered with the respective treatment starting 2 months flowing the surgery, considered as day 0. Test is performed on day 52 after staring the administration.
Ovariectomy: 16 weeks old C57Bl/6J female mice, obtained through Janvier, were be anesthetised with Xylazin/Ketamin (injection of 120 μl of a mixture of 120 mg/kg ketamine and 16 mg/kg xylazine) and shaved below the ribs on the back side. Betadine was be applied to the area for appropriate disinfection. After a 1-2 cm incision through the skin and the muscle layer just below the ribs, the ovary was localized, the fallopian tube ligated with dissolving suture and the ovary removed. The muscle layer was sutured with dissolving suture, the wound closed with staples and disinfected. The same procedure was/will be performed on the other side. […]

The conditions of assay [2]: curative model; treatment started 2 months after ovariectomy; alendronate 80 μg/kg/week s.c.; HI P. goldsteinii by gavage every second day.
Assay [3] concerns ovariectomized female mice. The assay can be described thus: 3-point bending test of femur, curative model. The class given is in vivo, C57BL/6J mice. The conditions noted are these: postmortem, day 60.
Excerpt: as §1
Ovariectomy: 16 weeks old C57Bl/6J female mice, obtained through Janvier, were be anesthetised with Xylazin/Ketamin (injection of 120 μl of a mixture of 120 mg/kg ketamine and 16 mg/kg xylazine) and shaved below the ribs on the back side. Betadine was be applied to the area for appropriate disinfection. After a 1-2 cm incision through the skin and the muscle layer just below the ribs, the ovary was localized, the fallopian tube ligated with dissolving suture and the ovary removed. The muscle layer was sutured with dissolving suture, the wound closed with staples and disinfected. The same procedure was/will be performed on the other side. A dose of Tamgesic was/will be administered 4 hours after the surgery, and the staples were removed 7 days after the surgery under isoflurane anesthesia. The sham-operated animals underwent the same procedure, without ligating the fallopian tube and the ovary excision. All mice were then kept for additional 2 months after the ovariectomies before starting the respective curative treatments.
Microbiota transplantation: Lactobacillus gasseri (DSM 20604) and Parabacteroides goldsteinii (DSM 19948) were pushased from DSMZ. Lactobacillus reuteri (PTA-6475) was obtained from ATCC. […] Freshly prepared bacteria were diluted in anaerobic PBS to a final concentration equivalent to 1.5 OD/ml at 600 nm. 200 ul of this suspension was gavaged every second day to ovariectomized mice, starting 2 months post-surgery for 38 day. From day 38 of the gavage until the day od sacrifice at day 60 the concentration was equivalent to 2 OD/ml at 600 nm, of which 200 ul was gavaged.
The amount administered was 80 μg/kg body weight once per week with subcutaneous injection, in total amount of 100-200 μl per injection.

In assay [4] the test system is Procollagen Type-1 N Terminal Propeptide (P1NP). The assay can be described thus: Plasma bone formation marker P1NP (ELISA). The conditions noted are these: P. goldsteinii 1.5 OD/ml, 200 μl every second day, given with alendronate 80 μg/kg BW once a week. The format is in vivo, mice. As for the experimental part:
Supplementation of P. goldsteinii increases secretion the bone formation marker P1NP, measured at Day 29 (FIG. 18A), or Day 50 (FIG. 18B) after the beginning of the treatment.
Measuring plasma bone turnover markers: After 5 h fasting (during the treatment), blood samples were collected from the tail of the mice with microvette capillary tubes containing EDTA and plasma was isolated after centrifuging 10000 g for 10 minutes. Plasma samples are collected during sacrifice (at the end of experiment) by taking 500 μl of blood from terminally anesthetized mice in tubes with 10 μl of […] EDTA, 4 μl of aprotinin (1.3%) and 4 μl of DPP-IV (10 mM), followed by centrifugation as described before. N-terminal pro-collagen type 1 extension pro-peptide (PINP) was measured with an ELISA kit (cat no:AC-33F, Immunodiagnostic Systems) according to manufacturers' instructions.
Background: ELISA stands for enzyme-linked immunosorbent assay.

`NCCCC(O)(P(=O)(O)O)P(=O)(O)O` [alendronate]: the “Insulin sensitivity (intraperitoneal insulin tolerance test)” value in assay [1] is “unaffected”. Further, the Body weight gain entry in assay [2] is listed as “did not alter the body weight”. Also, in assay [3], the “Elastic energy of femurs (femur metaphysis, FIG. 10)” value was “no changes”; the “Elastic energy, femur midshaft” value is listed as “No changes”; the “Stiffness, femur metaphysis” value is on record as “corrected ovariectomy induced decreases in stiffness”; the “Stiffness, femur midshaft” value is given as “No changes”. Moreover, in assay [3], the “Ultimate stress, femur metaphysis” value is “not observed to result in a statistically significant increase” and the “Ultimate stress, femur midshaft” value is “not observed to result in improvements”. Also, the “P1NP levels after 50 days of treatment” value in assay [4] is listed as “reduction in P1NP levels”.
